Results from patent US9403801B2 (Calitor Sciences, LLC, priority 2014, dated 2016).

Assays:
[1] = target: JAK2 (h) (Homo sapiens (Human), UniProt O60674); experiment: JAK2 kinase assay (33P-ATP filter binding, Millipore); type: biochemical
Experimental: (§1) Kinase assays can be performed by measurement of incorporation of γ-^33P ATP into immobilized myelin basic protein (MBP). High binding white 384 well plates (Greiner) are coated with MBP (Sigma #M−1891) by incubation of 60 μL/well of 20 μg/mL MBP in Tris-buffered saline (TBS; 50 mM Tris pH 8.0, 138 mM NaCl, 2.7 mM KCl) for 24 h at 4° C. Plates are washed 3× with 100 μL TBS. Kinase reactions are carried out in a total volume of 34 μL in kinase buffer (5 mM Hepes pH 7.6, 15 mM NaCl, 0.01% bovine gamma globulin (Sigma #I-5506), 10 mM MgCl2, 1 mM DTT, 0.02% TritonX-100). Compound dilutions are performed in DMSO and added to assay wells to a final DMSO concentration of 1%. Each data point is measured in duplicate, and at least two duplicate assays are performed for each individual compound determination. Enzyme is added to final concentrations of 10 nM or 20 nM, for example. A mixture of unlabeled ATP and γ-^33P ATP is added to start the reaction (2×10^6 cpm of γ-^33P ATP per well (3000 Ci/mmole) and 10 μM unlabeled ATP, typically. The reactions are carried out for 1 h at room temperature with shaking. Plates are washed 7× with TBS, followed by the addition of 50 μL/well scintillation fluid (Wallac). Plates are read using a Wallac Trilux counter. This is only one format of such assays; various other formats are possible, as known to one skilled in the art.
(§2) The above assay procedure can be used to determine the IC50 for inhibition and/or the inhibition constant, Ki. The IC50 is defined as the concentration of compound required to reduce the enzyme activity by 50% under the condition of the assay. The IC50 value is estimated by preparing a 10 point curve using a 1/2 log dilution series (for example, a typical curve may be prepared using the following compound concentrations: 3 μM, 1 μM, 0.3 μM, 0.1 μM, 0.03 μM, 0.01 μM, 0.003 μM, 0.001 μM, 0.0003 μM and 0 μM).
(§3) The kinase assays described herein were performed at Millipore UK Ltd, Dundee Technology Park, Dundee DD2 1SW, UK.

[2] = target: JAK1 (h) (Homo sapiens (Human), UniProt P23458); experiment: JAK1 kinase assay (33P-ATP filter binding, Millipore); type: biochemical
Chain of JAK1 (h) (P23458 whole entry): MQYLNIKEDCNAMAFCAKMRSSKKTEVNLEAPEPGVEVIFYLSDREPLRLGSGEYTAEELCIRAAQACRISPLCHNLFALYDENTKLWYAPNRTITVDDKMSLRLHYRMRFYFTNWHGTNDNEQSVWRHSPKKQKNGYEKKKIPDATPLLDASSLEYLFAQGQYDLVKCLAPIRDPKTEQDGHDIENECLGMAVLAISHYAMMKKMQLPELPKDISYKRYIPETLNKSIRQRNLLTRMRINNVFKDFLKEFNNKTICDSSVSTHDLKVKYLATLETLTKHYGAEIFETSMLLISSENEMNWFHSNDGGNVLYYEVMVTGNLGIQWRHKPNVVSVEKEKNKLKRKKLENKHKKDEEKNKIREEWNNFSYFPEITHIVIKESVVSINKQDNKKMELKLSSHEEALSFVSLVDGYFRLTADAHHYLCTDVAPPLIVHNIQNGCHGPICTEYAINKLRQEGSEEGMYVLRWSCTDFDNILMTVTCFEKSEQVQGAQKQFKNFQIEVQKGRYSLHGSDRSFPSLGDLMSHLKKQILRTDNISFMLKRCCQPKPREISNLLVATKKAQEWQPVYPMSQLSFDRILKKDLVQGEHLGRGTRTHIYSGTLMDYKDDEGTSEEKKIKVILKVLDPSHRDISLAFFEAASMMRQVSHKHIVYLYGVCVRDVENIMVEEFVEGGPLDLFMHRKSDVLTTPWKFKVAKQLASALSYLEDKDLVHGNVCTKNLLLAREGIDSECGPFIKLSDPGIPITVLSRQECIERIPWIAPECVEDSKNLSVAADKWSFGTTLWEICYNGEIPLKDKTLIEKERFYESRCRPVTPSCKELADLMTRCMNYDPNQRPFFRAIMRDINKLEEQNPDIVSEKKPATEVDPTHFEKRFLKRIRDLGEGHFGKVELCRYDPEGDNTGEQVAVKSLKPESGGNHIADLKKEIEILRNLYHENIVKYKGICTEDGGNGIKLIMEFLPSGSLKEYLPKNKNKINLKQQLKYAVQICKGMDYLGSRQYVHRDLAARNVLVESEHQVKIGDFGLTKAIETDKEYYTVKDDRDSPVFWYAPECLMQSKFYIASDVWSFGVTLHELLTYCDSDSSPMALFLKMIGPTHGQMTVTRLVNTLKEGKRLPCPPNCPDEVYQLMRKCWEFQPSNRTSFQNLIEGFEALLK
Experimental: as §1, §2, §3

[3] = Pharmacokinetics after intravenous and oral administration in rats; type: in vivo; details: for Clearance (CL) after iv dosing / AUC(0-t) / half-life / Vd: dose 1 mg/kg (Ex. 27: 0.72 mg/kg), iv dosing; for F: oral bioavailability; for AUC(0-t) / half-life / Vd: rat, plasma; for Vd: read-out: Vss
Experimental: The LC/MS/MS system used in the analysis consists of an Agilent 1200 Series vacuum degasser, binary pump, well-plate autosampler, thermostatted column compartment, the Agilent G6430 Triple Quadrupole Mass Spectrometer with an electrosprayionization (ESI) source. Quantitative analysis was carried out using MRM mode. The parameters for MRM transitions are in the Table A.
An Agilent XDB-C18, 2.1×30 mm, 3.5 μM column was used for the analysis. 5 μL of the samples were injected. Analysis condition: The mobile phase was 0.1% formic acid in water (A) and 0.1% formic acid in methanol (B). The flow rate was 0.4 mL/min. And the gradient of Mobile phase was in the Table B.
Alternatively, an Agilent 6330 series LC/MS/MS spectrometer equipped with G1312A binary pumps, a G1367A autosampler and a G1314C UV detector were used in the analysis. An ESI source was used on the LC/MS/MS spectrometer. The analysis was done in positive ion mode as appropriate and the MRM transition for each analyte was optimized using standard solution. A Capcell MP-C18 100×4.6 mm I.D., […] column (Phenomenex, Torrance, Calif., USA) was used during the analysis. The mobile phase was 5 mM ammonia acetate, 0.1% MeOH in water (A): 5 mM ammonia acetate, 0.1% MeOH in acetonitrile (B) (70:30, v/v). The flow rate was 0.6 mL/min. Column was maintained at ambient temperature. 20 μL of the samples were injected.
The compounds disclosed herein are assessed in pharmacokinetic studies in mice, rats, dogs or monkeys. The compounds are administered as a water solution, 2% HPMC+1% TWEEN®80 in water solution, 5% DMSO+5% solution in saline, 4% MC suspension or capsule. For the intravenous administration, the animals are generally given at 1 or 2 mg/kg dose. For the oral (p.o.) dosing, mice and rats are generally given 5 or 10 mg/kg dose, and dogs and monkeys are generally given 10 mg/kg dose. The blood samples (0.3 mL) are drawn at 0.25, 0.5, 1.0, 2.0, 3.0, 4.0, 6.0, 8.0, 12 and 24 h time points or 0.083, 0.25, 0.5, 1.0, 2.0, 4.0, 6.0, 8.0 and 24 h time points and centrifuged at 3,000 or 4000 rpm for 2 to 10 min. The plasma solutions are collected, and stored at −20° C. or −70° C. until analyzed by LC/MS/MS as described above.

[4] = Compound stability in human liver microsomes; type: in vitro ADME; details: pH 7.4; for half-life at 5 μM: Human liver microsomes 0.5 mg protein/mL, compound 5 μM, NADPH 1.0 mM, 37° C.; for CLint scaled at 5 μM: Human liver microsomes, in vivo CLint extrapolated
Experimental: (§4) Human or rat liver microsomes incubations were conducted in duplicate in polypropylene tubes. The typical incubation mixtures consisted of human or rat liver microsomes (0.5 mg protein/mL), compounds of interest (5 μM) and NADPH (1.0 mM) in a total volume of 200 μL potassium phosphate buffer (PBS, 100 mM, pH 7.4). Compounds were dissolved in DMSO and diluted with PBS such that the final concentration of DMSO was 0.05%. The enzymatic reactions were commenced with the addition of protein after a 3-min preincubation and incubated in a water bath open to the air at 37° C. Reactions were terminated at various time points (0, 5, 10, 15, 30, 60 min) by adding equal volume of ice-cold acetonitrile. The samples were stored at −80° C. until LC/MS/MS assays.
(§5) The concentrations of compounds in the incubation mixtures of human or rat liver microsomes were determined by a LC/MS/MS method. The ranges of the linearity in the concentration range were determined for each tested compounds.
(§6) A parallel incubation was performed using denatured microsomes as the negative control, and reactions were terminated at various time points (0, 15, 60 min) after incubation at 37° C.
(§7) Dextromethorphan (70 μM) was selected as the positive control, and reactions were terminated at various time points (0, 5, 10, 15, 30, 60 min) after incubation at 37° C. Both positive and negative control samples were included in each assay to ensure the integrity of the microsomal incubation system.
(§8) The concentrations of compounds in human or rat liver microsome incubations were plotted as a percentage of the relevant zero time point control for each reaction. The in vivo CLint were extrapolated (ref.: Naritomi, Y.; Terashita, S.; Kimura, S.; Suzuki, A.; Kagayama, A.; and Sugiyama, Y.; Prediction of human hepatic clearance from in vivo animal experiments and in vitro metabolic studies with liver microsomes from animals and humans. Drug Metab. Dispos., 2001, 29: 1316-1324).

[5] = Compound stability in rat liver microsomes; type: in vitro ADME; details: pH 7.4; for half-life at 5 μM: Rat liver microsomes 0.5 mg protein/mL, compound 5 μM, NADPH 1.0 mM, 37° C.; for CLint scaled at 5 μM: Rat liver microsomes, in vivo CLint extrapolated
Experimental: as §4, §5, §6, §7, §8

Chain of JAK2 (h) (O60674 whole entry): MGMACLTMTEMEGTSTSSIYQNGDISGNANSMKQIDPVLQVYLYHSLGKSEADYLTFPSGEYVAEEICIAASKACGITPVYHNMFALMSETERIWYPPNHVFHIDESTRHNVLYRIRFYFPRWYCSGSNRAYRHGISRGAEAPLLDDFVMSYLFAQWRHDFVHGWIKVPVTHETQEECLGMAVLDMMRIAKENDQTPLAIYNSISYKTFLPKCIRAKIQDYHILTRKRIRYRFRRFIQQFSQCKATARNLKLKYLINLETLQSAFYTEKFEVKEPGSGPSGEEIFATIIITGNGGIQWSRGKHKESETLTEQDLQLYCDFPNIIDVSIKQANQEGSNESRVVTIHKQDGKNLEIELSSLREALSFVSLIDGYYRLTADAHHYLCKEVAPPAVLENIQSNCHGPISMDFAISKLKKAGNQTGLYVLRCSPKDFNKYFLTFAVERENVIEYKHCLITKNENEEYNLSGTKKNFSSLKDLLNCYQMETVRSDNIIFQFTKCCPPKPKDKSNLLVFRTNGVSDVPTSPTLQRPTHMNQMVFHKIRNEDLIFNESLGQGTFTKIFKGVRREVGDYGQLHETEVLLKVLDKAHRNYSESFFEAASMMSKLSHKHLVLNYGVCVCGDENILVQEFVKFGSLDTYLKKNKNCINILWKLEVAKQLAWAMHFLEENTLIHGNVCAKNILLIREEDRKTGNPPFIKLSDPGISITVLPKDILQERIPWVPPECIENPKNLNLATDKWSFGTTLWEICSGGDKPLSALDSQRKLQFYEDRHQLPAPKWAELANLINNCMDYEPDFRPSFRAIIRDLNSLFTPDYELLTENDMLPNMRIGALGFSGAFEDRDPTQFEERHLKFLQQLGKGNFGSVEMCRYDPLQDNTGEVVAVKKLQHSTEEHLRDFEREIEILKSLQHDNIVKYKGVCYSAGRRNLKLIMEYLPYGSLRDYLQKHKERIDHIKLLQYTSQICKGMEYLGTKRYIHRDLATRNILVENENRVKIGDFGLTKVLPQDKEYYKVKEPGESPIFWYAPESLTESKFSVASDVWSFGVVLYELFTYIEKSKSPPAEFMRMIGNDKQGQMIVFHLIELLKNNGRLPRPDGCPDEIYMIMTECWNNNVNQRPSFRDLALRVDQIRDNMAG

CN(c1nc(Nc2cnn(C)c2)ncc1Cl)C1CCC2(CCCN(C(=O)CC#N)C2)C1 (stereo not drawn)
IC50 [1]: 7 nM | IC50 [2]: 3 nM

Cn1cc(Nc2ncc(Cl)c(NC3CCC4(CCNC4)CC3)n2)cn1 (single isomer, unassigned) [Ex. 13.3A, 5-chloro-N^2-(1-methyl-1H-pyrazol-4-yl)-N^4-(2-azaspiro[4.5]decan-8-yl)pyrimidine-2,4-diamine]
IC50 [1]: 55 nM | IC50 [2]: 2 nM

Cn1cc(Nc2ncc(Cl)c(NC3CCC4(CCNC4)CC3)n2)cn1 (single isomer, unassigned) [Ex. 13.3B, 5-chloro-N^2-(1-methyl-1H-pyrazol-4-yl)-N^4-(2-azaspiro[4.5]decan-8-yl)pyrimidine-2,4-diamine]
IC50 [1]: 14 nM | IC50 [2]: 2 nM

CN(c1nc(Nc2cnn(C)c2)ncc1Cl)C1CCC2(CC1)CCN(C(=O)CC#N)CC2 [Ex. 24, 3-(9-((5-chloro-2-((1-methyl-1H-pyrazol-4-yl)amino)pyrimidin-4-yl)(methyl)amino)-3-azaspiro[5.5]undecan-3-yl)-3-oxopropanenitrile]
IC50 [1]: 39 nM | IC50 [2]: 19 nM

Cn1cc(Nc2ncc(Cl)c(NC3CCC4(CC3)CCN(C(=O)CC#N)CC4)n2)cn1 [Ex. 26, 3-(9-((5-chloro-2-((1-methyl-1H-pyrazol-4-yl)amino)pyrimidin-4-yl)amino)-3-azaspiro[5.5]undecan-3-yl)-3-oxopropanenitrile]
IC50 [1]: 6 nM | IC50 [2]: 2 nM

Cn1cc(Nc2ncc(Cl)c(NC3CC4CN(c5ccc(C#N)cn5)CC4C3)n2)cn1 (stereo not drawn) [Ex. 33, 6-(5-((5-chloro-2-((1-methyl-1H-pyrazol-4-yl)amino)pyrimidin-4-yl)amino)hexahydrocyclopenta[c]pyrrol-2(1H)-yl)nicotinonitrile]
Clearance (CL) after iv dosing [3]: 24.8 mL/min/kg | F [3]: 60.4% | AUC(0-t) [3]: 702 ng·h/mL | half-life [3]: 147 min | Vd [3]: 3.33 L/kg | IC50 [1]: 3 nM | IC50 [2]: 0.4 nM

Cn1cnc(Nc2ncc(Cl)c(NC3CC4CN(C(=O)CC#N)CC4C3)n2)c1 (stereo not drawn) [Ex. 41]
IC50 [1]: 371 nM | IC50 [2]: 20 nM

Cn1nc(C2CC2)cc1Nc1ncc(Cl)c(NC2CC3CN(C(=O)CC#N)CC3C2)n1 (stereo not drawn) [Ex. 56, 3-(5-((5-chloro-2-((3-cyclopropyl-1-methyl-1H-pyrazol-5-yl)amino)pyrimidin-4-yl)amino)hexahydrocyclopenta[c]pyrrol-2(1H)-yl)-3-oxopropanenitrile]
half-life at 5 μM [4]: 37.6 min | CLint scaled at 5 μM [4]: 46.2 mL/min/kg | Clearance (CL) after iv dosing [3]: 36.3 mL/min/kg | F [3]: 31.3% | AUC(0-t) [3]: 459 ng·h/mL | half-life [3]: 32.4 min | Vd [3]: 0.95 L/kg | IC50 [2]: 5 nM | half-life at 5 μM [5]: 41.4 min | CLint scaled at 5 μM [5]: 60 mL/min/kg

Cc1cnc(Nc2cnn(C)c2)nc1NC1CC2CN(S(C)(=O)=O)CC2C1 (stereo not drawn) [Ex. 62, 5-methyl-N^2-(1-methyl-1H-pyrazol-4-yl)-N^4-(2-(methylsulfonyl)octahydrocyclopenta[c]pyrrol-5-yl)pyrimidine-2,4-diamine]
half-life at 5 μM [4]: 271 min | CLint scaled at 5 μM [4]: 6.41 mL/min/kg | Clearance (CL) after iv dosing [3]: 82.8 mL/min/kg | F [3]: 29.6% | AUC(0-t) [3]: 184 ng·h/mL | half-life [3]: 48.6 min | Vd [3]: 5.43 L/kg | IC50 [2]: 4 nM | half-life at 5 μM [5]: 81.1 min | CLint scaled at 5 μM [5]: 30.6 mL/min/kg

Cc1nn(C)cc1Nc1ncc(Cl)c(NC2CC3CN(C(=O)CC#N)CC3C2)n1 (stereo not drawn) [Ex. 64, 3-(5-((5-chloro-2-((1,3-dimethyl-1H-pyrazol-4-yl)amino)pyrimidin-4-yl)amino)hexahydrocyclopenta[c]pyrrol-2(1H)-yl)-3-oxopropanenitrile]
half-life at 5 μM [4]: 62.8 min | CLint scaled at 5 μM [4]: 27.7 mL/min/kg | Clearance (CL) after iv dosing [3]: 53.2 mL/min/kg | F [3]: 48.1% | AUC(0-t) [3]: 315 ng·h/mL | half-life [3]: 24.6 min | Vd [3]: 1.31 L/kg | IC50 [2]: 2 nM | half-life at 5 μM [5]: 33.6 min | CLint scaled at 5 μM [5]: 74 mL/min/kg

Cc1c(Nc2ncc(Cl)c(NC3CC4CN(C(=O)CC#N)CC4C3)n2)cnn1C (stereo not drawn) [Ex. 66, 3-(5-((5-chloro-2-((1,5-dimethyl-1H-pyrazol-4-yl)amino)pyrimidin-4-yl)amino)hexahydrocyclopenta[c]pyrrol-2(1H)-yl)-3-oxopropanenitrile]
half-life at 5 μM [4]: 81.5 min | CLint scaled at 5 μM [4]: 21.3 mL/min/kg | Clearance (CL) after iv dosing [3]: 81.8 mL/min/kg | F [3]: 21.0% | AUC(0-t) [3]: 201 ng·h/mL | half-life [3]: 16.2 min | Vd [3]: 2.28 L/kg | IC50 [2]: 7 nM | half-life at 5 μM [5]: 21.2 min | CLint scaled at 5 μM [5]: 117 mL/min/kg

CN(c1nc(Nc2cnn(C)c2)ncc1Cl)C1CC2CN(C(=O)CC#N)CC2C1 (stereo not drawn) [Ex. 69, 3-(5-((5-chloro-2-((1-methyl-1H-pyrazol-4-yl)amino)pyrimidin-4-yl)(methyl)amino)hexahydrocyclopenta[c]pyrrol-2(1H)-yl)-3-oxopropanenitrile]
half-life at 5 μM [4]: 95.6 min | CLint scaled at 5 μM [4]: 18.2 mL/min/kg | Clearance (CL) after iv dosing [3]: 65.2 mL/min/kg | F [3]: 56.2% | AUC(0-t) [3]: 281 ng·h/mL | half-life [3]: 28.2 min | Vd [3]: 1.19 L/kg | IC50 [2]: 15 nM | half-life at 5 μM [5]: 12.2 min | CLint scaled at 5 μM [5]: 204 mL/min/kg
